Data from patent publication US20240158446A1, “CYCLIC COMPOUND HAVING SELECTIVE INHIBITORY ACTION ON KRAS OVER HRAS AND NRAS” (CHUGAI SEIYAKU KABUSHIKI KAISHA, priority 2021, published 2024).
Like-named read-outs stand apart in the source and are kept apart here. *1 amine or outer side, *2 acyl side, *3 side chain or, on linkers, in order; H or OH if unused. Where a SMILES comes first, the peptide text is derived from it. Bridges are numbered along the chain shown (N, C = ends). [ ]: non-standard residue; d: D form. The star is where a group is joined. hPhe(3-Cl-4-CF3) = N[C@@H](CCc1ccc(C(F)(F)F)c(Cl)c1)C(=O)O; NPrPhe(4-CF3) = CCCN[C@@H](Cc1ccc(C(F)(F)F)cc1)C(=O)O; X3 = CCCN([C@H](C(=O)[*:2])C1CCCC1)[*:1]; NMeGly(cPent) = CN[C@H](C(=O)O)C1CCCC1; Pro(4,4-F2) = O=C(O)[C@@H]1CC(F)(F)CN1; NMeGly(cBu) = CN[C@H](C(=O)O)C1CCC1; Hyp = O=C(O)[C@@H]1C[C@@H](O)CN1; NMeD = CN[C@@H](CC(=O)O)C(=O)O; NMeL = CN[C@@H](CC(C)C)C(=O)O; Morpholide = C1CN(*)CCO1; NMeA = CN[C@@H](C)C(=O)O; Ac5c = NC1(C(=O)O)CCCC1; Aze = O=C(O)[C@@H]1CCN1; Ac4c = NC1(C(=O)O)CCC1; Sar = CNCC(=O)O

Key:
[1] = target: GDP-bound NRAS wild-type protein (Homo sapiens, UniProt P01111); assay: Binding to NRAS by surface plasmon resonance (SPR), Single Cycle Kinetics
Chain of GDP-bound NRAS wild-type protein (P01111 whole entry): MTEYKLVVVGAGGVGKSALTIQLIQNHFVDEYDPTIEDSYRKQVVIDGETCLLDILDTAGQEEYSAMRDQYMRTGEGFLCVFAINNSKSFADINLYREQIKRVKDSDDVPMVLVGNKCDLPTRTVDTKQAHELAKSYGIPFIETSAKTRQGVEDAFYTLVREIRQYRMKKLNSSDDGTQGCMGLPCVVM

[2] = target: GDP-bound KRAS wild-type protein (Homo sapiens, UniProt P01116); assay: Binding to KRAS by surface plasmon resonance (SPR), Single Cycle Kinetics; conditions: GDP-bound KRAS wild-type protein, read-out: KRAS KD
Chain of GDP-bound KRAS wild-type protein (P01116 whole entry): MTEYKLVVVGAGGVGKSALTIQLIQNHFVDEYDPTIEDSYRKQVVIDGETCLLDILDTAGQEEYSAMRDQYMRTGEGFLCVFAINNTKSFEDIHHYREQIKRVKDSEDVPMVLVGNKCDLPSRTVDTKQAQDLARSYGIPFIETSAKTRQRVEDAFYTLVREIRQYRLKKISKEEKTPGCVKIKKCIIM

[3] = target: GDP-bound HRAS wild-type protein (Homo sapiens, UniProt P01112); assay: Binding to HRAS by surface plasmon resonance (SPR), Single Cycle Kinetics
Chain of GDP-bound HRAS wild-type protein (P01112 whole entry): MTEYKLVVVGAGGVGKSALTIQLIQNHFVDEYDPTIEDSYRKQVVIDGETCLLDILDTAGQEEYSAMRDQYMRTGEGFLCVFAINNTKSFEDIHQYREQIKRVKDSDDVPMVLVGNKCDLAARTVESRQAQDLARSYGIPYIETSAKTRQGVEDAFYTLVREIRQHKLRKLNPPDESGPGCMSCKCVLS

[4] = SPR, GDP-bound NRAS wild-type protein vs GDP-bound KRAS wild-type protein
[5] = SPR Single Cycle Kinetics, 1:1 binding model
[6] = SPR, GDP-bound HRAS wild-type protein vs GDP-bound KRAS wild-type protein

Compound | Kd [2, 5] [nM] | Kd ([2]; SPR, Single Cycle Kinetics) [nM] | NRAS/KRAS (ratio of KD value for NRAS to KD value for KRAS) [1, 4] | HRAS/KRAS (ratio of KD value for HRAS to KD value for KRAS) [3, 6] | NRAS/KRAS (ratio of KD value with respect to NRAS to KD value with respect to KRAS) [1, 4] | HRAS/KRAS (ratio of KD value with respect to HRAS to KD value with respect to KRAS) [3, 6] | NRAS/KRAS (ratio of KD value with respect to GDP-bound NRAS wild-type protein to KD value with respect to KRAS) ([1]; SPR KD ratio NRAS/KRAS, class symbols) | HRAS/KRAS (ratio of KD value with respect to GDP-bound HRAS wild-type protein to KD value with respect to KRAS) ([3]; SPR KD ratio HRAS/KRAS, class symbols)
CCCN1C(=O)[C@@H]2CCN2C(=O)[C@H](C)N(C)C(=O)[C@H]([C@@H](C)CC)NC(=O)[C@H](C2CCC2)N(C)C(=O)C[C@@H](C(=O)N2CCOCC2)N(C)C(=O)[C@H](C2CCCC2)N(C)C(=O)C2(CCCC2)NC(=O)[C@@H]2CC(F)(F)CN2C(=O)[C@H](CCc2ccc(C(F)(F)F)c(Cl)c2)NC(=O)CN(C)C(=O)[C@@H]1Cc1ccc(C(F)(F)F)cc1 [PP0204] ([NMeGly(cBu)]I[NMeA][Aze][NPrPhe(4-CF3)][Sar][hPhe(3-Cl-4-CF3)][Pro(4,4-F2)][Ac5c][NMeGly(cPent)][NMeD]-Morpholide; lactam N-11) | 0.21 |  | C (A compound having a KD ratio of 0.1 or more and less than 3 is denoted as C) | C (A compound having a KD ratio of 0.1 or more and less than 3 is denoted as C) |  |  |  | 
CCC[C@H]1C(=O)N[C@@H]([C@@H](C)CC)C(=O)N2CCC[C@H]2C(=O)N(C)[C@H]2C/C=C\CCN(C2=O)[C@@H](Cc2ccc(C)cc2)C(=O)N(C)CC(=O)N[C@@H](CCc2ccc(C(F)(F)F)c(OC)c2)C(=O)N2C[C@H](OCC)C[C@H]2C(=O)N(C)C2(CCC2)C(=O)N(C)[C@@H](C2CCCC2)C(=O)N(C)[C@H](C(=O)N(C)C)CC(=O)N1C [PP2332] |  | 0.1 | A (a compound having 10 or more and less than 20 is denoted as A) | B (a compound having 3 or more and less than 10 is denoted as B) |  |  |  | 
CCCN1C(=O)CN(C)C(=O)CN(C)C(=O)[C@H]([C@@H](C)CC)NC(=O)[C@H](CC(C)C)N(C)C(=O)C[C@@H](C(=O)N2CCOCC2)N(C)C(=O)[C@H](C2CCCC2)N(C)C(=O)C2(CCCC2)NC(=O)[C@@H]2C[C@@H](O)CN2C(=O)[C@H](CCc2ccc(C(F)(F)F)c(Cl)c2)NC(=O)CN(C)C(=O)[C@@H]1Cc1ccc(C(F)(F)F)cc1 [PP0241] ([NMeL]I[Sar][Sar][NPrPhe(4-CF3)][Sar][hPhe(3-Cl-4-CF3)][Hyp][Ac5c][NMeGly(cPent)][NMeD]-Morpholide; lactam N-11) | 0.052 |  | B (a compound having 3 or more and less than 10 is denoted as B) | C (A compound having a KD ratio of 0.1 or more and less than 3 is denoted as C) |  |  |  | 
CC[C@H](C)[C@@H]1NC(=O)[C@H](CC(C)C)N(C)C(=O)C[C@@H](C(=O)N2CCCCC2)N(C)C(=O)[C@H](C2CCCC2)N(C)C(=O)C2(CCCC2)NC(=O)[C@@H]2CCCN2C(=O)[C@H](CCc2cc(F)c(C(F)(F)F)c(F)c2)NC(=O)CN(C)C(=O)[C@H](Cc2ccc(C(F)(F)F)cc2)N2CCCC[C@@H](C2=O)N(C)C(=O)CN(C)C1=O [PP0572] | 0.14 |  |  |  | B (a compound having 3 or more and less than 10 is denoted as B) | B (a compound having 3 or more and less than 10 is denoted as B) |  | 
CCCN1C(=O)CN(C)C(=O)CNC(=O)[C@H]([C@@H](C)CC)NC(=O)[C@H](CC(C)C)N(C)C(=O)C[C@@H](C(=O)N2CCOCC2)N(C)C(=O)[C@H](C2CCCC2)N(C)C(=O)C2(CCC2)NC(=O)[C@@H]2CCCN2C(=O)[C@H](CCc2ccc(C(F)(F)F)c(Cl)c2)NC(=O)CN(C)C(=O)[C@@H]1Cc1ccc(C(F)(F)F)cc1 [PP0393] ([NMeL]IG[Sar][NPrPhe(4-CF3)][Sar][hPhe(3-Cl-4-CF3)]P[Ac4c][NMeGly(cPent)][NMeD]-Morpholide; lactam N-11) | 0.11 |  | B (a compound having 3 or more and less than 10 is denoted as B) | B (a compound having 3 or more and less than 10 is denoted as B) |  |  |  | 
CCCN1C(=O)CN(C)C(=O)CN(C)C(=O)[C@H]([C@@H](C)CC)NC(=O)[C@H](CC(C)C)N(C)C(=O)C[C@@H](C(=O)N2CCOCC2)N(C)C(=O)[C@H](C2CCCC2)N(C)C(=O)C2(CCCC2)NC(=O)[C@@H]2CCCN2C(=O)[C@H](CCc2ccc(C(F)(F)F)c(Cl)c2)NC(=O)CN(C)C(=O)[C@@H]1C1CCCC1 [PP0061] ([NMeL]I[Sar][Sar][X3][Sar][hPhe(3-Cl-4-CF3)]P[Ac5c][NMeGly(cPent)][NMeD]-Morpholide; lactam N-11) | 3.8 |  | B (a compound having 3 or more and less than 10 is denoted as B) | C (A compound having a KD ratio of 0.1 or more and less than 3 is denoted as C) |  |  |  | 

Second part, led by results:

Kd [2, 5] [nM] | Kd ([2]; SPR, Single Cycle Kinetics) [nM] | Compound | NRAS/KRAS (ratio of KD value for NRAS to KD value for KRAS) [1, 4] | HRAS/KRAS (ratio of KD value for HRAS to KD value for KRAS) [3, 6] | NRAS/KRAS (ratio of KD value with respect to NRAS to KD value with respect to KRAS) [1, 4] | HRAS/KRAS (ratio of KD value with respect to HRAS to KD value with respect to KRAS) [3, 6] | NRAS/KRAS (ratio of KD value with respect to GDP-bound NRAS wild-type protein to KD value with respect to KRAS) ([1]; SPR KD ratio NRAS/KRAS, class symbols) | HRAS/KRAS (ratio of KD value with respect to GDP-bound HRAS wild-type protein to KD value with respect to KRAS) ([3]; SPR KD ratio HRAS/KRAS, class symbols)
 | 5 | CCO[C@@H]1C[C@H]2C(=O)NC3(CC(C)(C)C3)C(=O)N(C)[C@@H](C(CC)CC)C(=O)N(C)[C@H](C(=O)N(C)C)CC(=O)N(C)[C@@H](CC3CC3)C(=O)N[C@@H]([C@@H](C)CC)C(=O)N(C)CC(=O)N(C)[C@H]3C/C=C\CCN(C3=O)[C@@H](Cc3ccc(C(F)(F)F)cc3)C(=O)N(C)CC(=O)N[C@@H](CCc3cc(F)c(C(F)(F)F)c(F)c3)C(=O)N2C1 [PP2119] | A (a compound having 10 or more and less than 20 is denoted as A) | B (a compound having 3 or more and less than 10 is denoted as B) |  |  |  | 
 | 1.2 | CCO[C@@H]1C[C@H]2C(=O)NC3(CCC3)C(=O)N(C)[C@@H](C3CCCC3)C(=O)N(C)[C@H](C(=O)N3CCOCC3)CC(=O)N(C)[C@@H](CC(C)C)C(=O)N[C@@H]([C@@H](C)CC)C(=O)N3CC[C@H]3C(=O)N(C)[C@H]3CC(C)=CCN(C3=O)[C@@H](Cc3ccc(C(F)(F)F)cc3)C(=O)N(C)CC(=O)N[C@@H](CCc3cc(F)c(C(F)(F)F)c(F)c3)C(=O)N2C1 [PP1040] | C (A compound having a KD ratio of 0.1 or more and less than 3 is denoted as C) | C (A compound having a KD ratio of 0.1 or more and less than 3 is denoted as C) |  |  |  | 
 | 0.13 | CCO[C@@H]1C[C@H]2C(=O)NC3(CC(C)(C)C3)C(=O)N(C)[C@@H](C(CC)CC)C(=O)N(C)[C@H](C(=O)N(C)C)CC(=O)N(C)[C@H]3CCCC/C=C/c4ccc(cc4)C[C@@H](C(=O)N(C)CC(=O)N[C@@H](CCc4ccc(Cl)c(Cl)c4)C(=O)N2C1)N1CC/C=C\C[C@@H](C1=O)N(C)C(=O)CN(C)C(=O)[C@H]([C@@H](C)CC)NC3=O [PP3045] | AA (a compound having 20 or more is denoted as AA) | A (a compound having 10 or more and less than 20 is denoted as A) |  |  |  | 
1.4 |  | CCC(CC)[C@H]1C(=O)N(C)[C@H](C(=O)N(C)C)CC(=O)N(C)[C@@H](COC)C(=O)N[C@@H]([C@@H](C)CC)C(=O)N(C)CC(=O)N(C)[C@H]2C/C=C\CCN(C2=O)[C@@H](Cc2ccc(C(F)(F)F)cc2)C(=O)N(C)CC(=O)N[C@@H](CCc2cc(F)c(C(F)(F)F)c(F)c2)C(=O)N2CCOC[C@H]2C(=O)NC2(CC(C)(C)C2)C(=O)N1C [PP2917] |  |  |  |  | AA (a compound having 20 or more is denoted as AA) | A (a compound having 10 or more and less than 20 is denoted as A)
